# ChEMBL document CHEMBL3132840 (Medchemcomm, 2014)
# Tests used:
# Homo sapiens = species: Homo sapiens; assay: Selectivity index, ratio of IC50 for human MAO-B to IC50 for human MAO-A
# Cholinesterase = Cholinesterase (Equus caballus, UniProt P81908)
# [1] = molecular target: T1, Amine oxidase [flavin-containing] B (Homo sapiens, UniProt P27338)
# T1 sequence (P27338 whole entry): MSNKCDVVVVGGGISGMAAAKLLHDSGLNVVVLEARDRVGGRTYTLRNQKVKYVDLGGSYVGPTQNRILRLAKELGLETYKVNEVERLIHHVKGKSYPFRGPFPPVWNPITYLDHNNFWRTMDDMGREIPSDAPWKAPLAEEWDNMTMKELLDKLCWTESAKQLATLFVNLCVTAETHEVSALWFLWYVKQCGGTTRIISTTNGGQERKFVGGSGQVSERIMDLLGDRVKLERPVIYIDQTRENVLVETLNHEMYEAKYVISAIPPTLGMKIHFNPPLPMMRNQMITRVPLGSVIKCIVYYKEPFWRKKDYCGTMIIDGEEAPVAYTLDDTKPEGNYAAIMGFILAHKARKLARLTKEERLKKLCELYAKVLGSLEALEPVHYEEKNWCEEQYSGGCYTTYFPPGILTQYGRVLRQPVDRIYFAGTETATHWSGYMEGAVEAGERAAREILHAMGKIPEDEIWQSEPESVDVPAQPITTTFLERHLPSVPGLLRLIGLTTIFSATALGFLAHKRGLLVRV
# Acetylcholinesterase = Acetylcholinesterase (Electrophorus electricus, UniProt O42275); assay: Inhibition of electric eel AChE using acetylthiocholine iodide as substrate incubated for 6 mins prior to substrate addition measured after 60 to 180 secs by Ellman's method
# Sequence of Acetylcholinesterase (O42275 whole entry): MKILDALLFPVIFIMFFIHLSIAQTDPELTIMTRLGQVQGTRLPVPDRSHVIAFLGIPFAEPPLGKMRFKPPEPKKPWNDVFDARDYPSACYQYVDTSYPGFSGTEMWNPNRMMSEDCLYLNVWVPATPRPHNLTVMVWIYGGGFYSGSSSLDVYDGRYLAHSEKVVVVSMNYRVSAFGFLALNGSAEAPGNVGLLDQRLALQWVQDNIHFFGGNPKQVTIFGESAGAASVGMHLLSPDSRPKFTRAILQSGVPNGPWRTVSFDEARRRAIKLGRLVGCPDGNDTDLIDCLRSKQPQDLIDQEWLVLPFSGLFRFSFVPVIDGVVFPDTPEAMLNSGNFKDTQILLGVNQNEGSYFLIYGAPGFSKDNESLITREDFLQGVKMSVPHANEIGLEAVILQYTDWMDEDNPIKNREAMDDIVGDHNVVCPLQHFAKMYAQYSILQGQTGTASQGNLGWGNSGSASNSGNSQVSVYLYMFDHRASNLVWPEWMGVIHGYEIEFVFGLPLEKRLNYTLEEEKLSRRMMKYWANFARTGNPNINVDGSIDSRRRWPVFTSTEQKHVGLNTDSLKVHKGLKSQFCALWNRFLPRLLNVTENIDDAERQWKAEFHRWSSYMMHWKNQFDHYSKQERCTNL
# [2] = molecular target: T2, Amine oxidase [flavin-containing] A (Homo sapiens, UniProt P21397)
# T2 sequence (P21397 whole entry): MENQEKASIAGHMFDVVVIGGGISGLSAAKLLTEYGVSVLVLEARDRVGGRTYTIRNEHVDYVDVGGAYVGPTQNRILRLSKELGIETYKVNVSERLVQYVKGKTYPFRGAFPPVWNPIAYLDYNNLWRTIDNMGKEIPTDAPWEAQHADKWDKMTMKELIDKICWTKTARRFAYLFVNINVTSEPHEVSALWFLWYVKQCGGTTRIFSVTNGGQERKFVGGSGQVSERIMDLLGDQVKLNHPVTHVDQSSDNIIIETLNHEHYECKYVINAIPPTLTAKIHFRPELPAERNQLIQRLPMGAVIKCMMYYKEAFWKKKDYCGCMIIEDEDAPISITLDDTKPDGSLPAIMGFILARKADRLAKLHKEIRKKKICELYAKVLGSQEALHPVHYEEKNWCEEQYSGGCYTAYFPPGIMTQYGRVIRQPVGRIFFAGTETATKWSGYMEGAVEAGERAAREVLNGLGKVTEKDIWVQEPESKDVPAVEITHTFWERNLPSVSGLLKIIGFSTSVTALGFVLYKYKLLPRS
# [3] = Cytotoxicity against human SH-SY5Y cells assessed as cell viability at 1 uM after 24 hrs by MTT assay; format: cell-based; settings: read-out: Activity
# [4] = Cytotoxicity against human SH-SY5Y cells assessed as cell viability at 25 uM after 24 hrs by MTT assay; format: cell-based; settings: read-out: Activity
# [5] = Cytotoxicity against human SH-SY5Y cells assessed as cell viability at 10 uM after 24 hrs by MTT assay; format: cell-based; settings: read-out: Activity
# [6] = Cytotoxicity against human SH-SY5Y cells assessed as cell viability at 5 uM after 24 hrs by MTT assay; format: cell-based; settings: read-out: Activity
# [7] = Cytotoxicity against human SH-SY5Y cells assessed as cell viability at 50 uM after 24 hrs by MTT assay; format: cell-based; settings: read-out: Activity
# Sequence of Cholinesterase (P81908 whole entry): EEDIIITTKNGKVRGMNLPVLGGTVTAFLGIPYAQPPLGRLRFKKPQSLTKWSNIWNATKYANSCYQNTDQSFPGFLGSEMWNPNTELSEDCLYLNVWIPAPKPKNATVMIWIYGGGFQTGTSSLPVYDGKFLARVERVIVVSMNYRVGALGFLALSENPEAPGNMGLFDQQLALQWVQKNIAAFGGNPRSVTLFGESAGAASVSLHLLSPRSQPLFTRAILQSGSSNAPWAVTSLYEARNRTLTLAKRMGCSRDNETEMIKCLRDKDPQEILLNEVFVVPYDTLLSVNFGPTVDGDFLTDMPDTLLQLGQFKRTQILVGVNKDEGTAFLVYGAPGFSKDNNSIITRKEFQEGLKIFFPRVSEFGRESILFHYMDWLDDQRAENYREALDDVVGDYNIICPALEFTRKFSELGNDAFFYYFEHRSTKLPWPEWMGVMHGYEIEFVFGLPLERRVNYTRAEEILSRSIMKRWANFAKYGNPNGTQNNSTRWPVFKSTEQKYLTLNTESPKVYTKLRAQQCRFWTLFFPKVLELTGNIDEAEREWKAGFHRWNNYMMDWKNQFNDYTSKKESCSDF
SMILES,Ratio IC50 (Homo sapiens),IC50 (Cholinesterase),IC50 [1],IC50 (Acetylcholinesterase),IC50 [2],"viability at 24 h, 1 µM [3]","viability at 24 h, 25 µM [4]","viability at 24 h, 10 µM [5]","viability at 24 h, 5 µM [6]","viability at 24 h, 50 µM [7]"
CCN(CCCCCCOc1ccc(/C=C/c2cc(OC)cc(OC)c2)cc1)Cc1cccc(F)c1,< 0.97,52 µM,97.5 µM,77.8 µM,> 100 µM,–,–,–,–,–
COc1cc(/C=C/c2ccc(OCCCCCCN3CCCC3)cc2)cc(OC)c1,0.7,8.04 µM,12.2 µM,6.55 µM,17.6 µM,97%,93.2%,94.4%,95.6%,90.8%
CCN(CCCCCCOc1ccc(/C=C/c2cc(OC)cc(OC)c2)cc1)Cc1ccc(OC)cc1,–,> 100 µM,> 100 µM,89.7 µM,> 100 µM,–,–,–,–,–
COc1cc(/C=C/c2ccc(OCCCCCCN3CCCCC3C)cc2)cc(OC)c1 (configuration not stated),0.67,10.1 µM,16.3 µM,4.07 µM,24.3 µM,–,–,–,–,–
CCCN(CCC)CCCCCCOc1ccc(/C=C/c2cc(OC)cc(OC)c2)cc1,1.03,7.49 µM,92.4 µM,12.1 µM,89.4 µM,–,–,–,–,–
COc1cc(/C=C/c2ccc(OCCCCCN(C)Cc3ccccc3)cc2)cc(OC)c1,0.16,43.7 µM,16.2 µM,39.2 µM,97.4 µM,–,–,–,–,–
CCN(CCCCCCOc1ccc(/C=C/c2cc(OC)cc(OC)c2)cc1)Cc1ccc(F)cc1,–,85.4 µM,> 100 µM,92.3 µM,> 100 µM,–,–,–,–,–
COc1cc(/C=C/c2ccc(OCCN(C)Cc3ccccc3)cc2)cc(OC)c1,< 0.89,89.6 µM,89 µM,79.3 µM,> 100 µM,–,–,–,–,–
CCN(CCCCCCOc1ccc(/C=C/c2cc(OC)cc(OC)c2)cc1)Cc1cccc(OC)c1,–,> 100 µM,> 100 µM,71.5 µM,> 100 µM,–,–,–,–,–
COc1cc(/C=C/c2ccc(OCCCCCCN(C)C)cc2)cc(OC)c1,0.2,10.3 µM,7.52 µM,8.19 µM,37.5 µM,–,–,–,–,–
COc1cc(/C=C/c2ccc(OCCCCCCN3CCC(O)CC3)cc2)cc(OC)c1,< 0.14,23.1 µM,14.6 µM,17.2 µM,> 100 µM,–,–,–,–,–
